Key:
[1] = biological target: SARS-CoV-2 Main Protease (SARS-CoV-2) (UniProt P0DTD1)
[2] = biological target: SARS-CoV-2 Main Protease (SARS-CoV-2) (UniProt P0DTD1); remark: listed apart in the source
Procedure: Briefly, compounds were seeded into assay-ready plates (Greiner 384PP, cat# 781280) using an ECHO 650T dispenser and DMSO was back-filled for a uniform concentration in assay plates (DMSO concentration < 1%, final volume = 500 nL.). […] After a quick centrifugation step (1000 rpm, 15 s) the plate is incubated for 15 min at room temperature. […] After centrifugation (1000 rpm, 14 s) the reaction is incubated for 10 min (11-mer) or 5 min (37-mer) at room temperature before quenching with 10 % formic acid. The reactions are analysed with MS using RapidFire (RF) 365 high-throughput sampling robot (Agilent) connected to an iFunnel Agilent 6550 accurate mass quadrupole time-of-flight (Q-TOF) mass spectrometer using electrospray. […] Dose response curves uses an 11-point range of 100--0.0017 µM inhibitor concentrations. RapidFire integrator software (Agilent) was used to extract the charged states from the total ion chromatogram data followed by peak integration. For the 11-mer peptide the m/z (+1) charge states of both the substrate (1191.67 Da) and cleaved N-terminal product TSAVLQ (617.34 Da) were used and the 37-mer peptide the m/z (+2) charge states of the substrate (3960.94 Da) and m/z (+1) of the cleaved C-terminal product [sequence] (1125.57 Da). Percentage conversion (product peak integral / (product peak integral + substrate peak integral))*100) and percentage inhibitions were calculated and normalised against DMSO control with deduction of any background signal in Microsoft Excel. IC50s were calculated using Levenberg–Marquardt algorithm used to fit a restrained Hill equation to the dose-response data with both GraphPad PRISM and CDD.

Row | Compound | inhibition ([1]; 20.0 µM) [%] | inhibition ([1]; 50.0 µM) [%] | inhibition ([2]; 50.0 µM) [%] | IC50 [2] [nM] | IC50 [1] [nM] | inhibition ([2]; 20.0 µM) [%]
1 | CC(C(=O)Nc1cnccc1O)c1ccccc1 (stereo unspecified) | 0.187 | 0.74 | 0 |  |  | 
2 | COc1ccc(CN2C(=O)C(=O)c3cc(Br)cc(C)c32)cc1OC | -2.84 | 0.559 | 99.3 | 1230 |  | 
3 | CNC(=O)c1cc(Cl)cc(CC(=O)Nc2cnccc2C)c1 |  |  |  | 43900 | 51500 | 
4 | C#Cc1ncccc1NC(=O)Cc1cccc(Cl)c1 | -2.01 | 3.62 | 7.93 |  |  | 
5 | N#Cc1cncc(NC(=O)Cc2c[nH]c3ncccc23)c1 | -0.384 | 0.0775 | 0 |  |  | 
6 | O=C1C(=O)N(CCCOc2ccc(Cl)cc2)c2ccccc21 | -0.218 | 3.47 | 7.23 |  |  | 
7 | COc1ccc2c(c1F)NC(=O)C2=O | -1.15 | 3.02 | 7.79 |  |  | 
8 | O=C(Oc1cncc(Cl)c1)c1cccc2[nH]ccc12 | 99.8 | 100 | 100 |  |  | 
9 | CCN(Cc1cccc(-c2ccncc2)c1)C(=O)Cn1nnc2ccccc21 | 3.37 | 15.6 | 0 |  |  | 
10 | N#CCCCOC(=O)c1cccc2c1NC(=O)C2=O | -3.65 | -1.22 | 0 |  |  | 
11 | CC(C)n1c(NC(=O)C2CCOc3ccccc32)nc2ccccc21 (stereo unspecified) | 27.9 | -2.12 | 8.85 |  |  | 
12 | Cc1ccccc1NC(=O)CC1SC(=O)N(c2ccccc2)C1=O (stereo unspecified) | 92.6 | 94.9 |  | 658 |  | 
13 | CCOC(=O)c1cc(-c2ccccc2)sc1NC(=O)Cc1csc(-c2ccccc2)n1 | 91.8 | 97.9 |  | 2690 |  | 
14 | C=CC(=O)N(c1ccc(C(F)(F)F)cc1)C(C(=O)Nc1ccc(OC)cc1)c1cccnc1 (stereo unspecified) | 40.3 | 60.7 |  |  |  | 60
15 | Cc1cccc(NC(=O)CN2C(=O)C(=O)c3ccccc32)c1 | -4.74 | -1.42 | 53.7 | 42400 |  | 
16 | COc1ccccc1OCCNC(=O)c1cc(=O)[nH]c2cccc(C)c12 | 91.8 | 96.4 | 89.7 | 2600 |  | 
17 | CCOC(=O)c1ccc(NC(=O)CC2SC(=O)N(c3ccccc3)C2=O)cc1 (stereo unspecified) | 79 | 80.7 |  | 635 |  | 
18 | Cc1ccc(S(=O)(=O)Nc2c(-c3cccnc3)nc3ccccn23)c(C)c1 | 2.5 | 7.7 | 0 |  |  | 
19 | C=CC(=O)N1CC(NCc2c[nH]c3ccc(C#N)cc23)C1 | -2.15 | 15.4 | 0 |  |  | 
20 | c1ccc(-c2cc(Sc3nnc(-c4cccs4)o3)n3ncnc3n2)cc1 | 47.1 | 96.7 |  | 152 |  | 
21 | CNCCN(C)C(=O)C(=O)N1Cc2ccccc2C(c2ccccc2)C1 (stereo unspecified) | -1.83 | -2.83 | 0 |  |  | 
22 | CCC(=O)Nc1ccc(N(Cc2ccsc2)C(=O)Cn2nnc3ccccc32)cc1 | 79.7 | 89.3 | 78.1 |  |  | 
23 | COc1ccc(-n2cc(CN3CCN(C(=O)CCl)CC3)nn2)cc1 | 10.9 | 24.9 | 24.1 |  |  | 
24 | CC(C)Cn1cc(NC(=O)NCCCN2CCC(C)CC2)c2ccccc2c1=O | -1.82 | -1.61 |  | 98200 |  | 

Row | Compound | inhibition ([1]; 20.0 µM) [%] | inhibition ([1]; 50.0 µM) [%] | inhibition ([2]; 50.0 µM) [%] | IC50 [2] [nM] | IC50 [1] [nM] | inhibition ([2]; 20.0 µM) [%]
25 | C=CC(=O)N(C(CO)CC#CC)C(C(=O)NC(C)(C)C)c1cccnc1 (stereo unspecified) | -4.06 | -4.3 | 0 |  |  | 
26 | Cc1cc([C@H](C)C(=O)O)cc2[nH]c3ccc(Cl)cc3c12 (stereo in doubt) | 0.304 | 3.37 | 9.04 |  |  | 
27 | COc1ccccc1OC1CCCN(C(=O)c2c(C)c(=O)[nH]c3ccccc23)C1 (stereo unspecified) | -2.54 | -1.13 | 0 |  |  | 
28 | CN1CCN(C(=O)Cc2c[nH]c3ncc(C(=O)NCCc4c[nH]c5ccc(F)cc45)cc23)CC1 | -1.5 | 7.57 | 8.74 |  |  | 
29 | CCOc1ccccc1CN1C(=O)C(=O)c2cc(Br)ccc21 | 0.566 | 3.64 | 72.2 | 12400 |  | 
30 | O=[N+]([O-])c1cnc(Sc2nccc(-c3cccnc3)n2)s1 | 9.63 | 37.5 |  | 1440 |  | 
31 | O=c1oc(Nc2ccccc2)nc2ccccc12 | 68.6 | 90.4 |  | 363 |  | 
32 | CC(C)n1cnnc1CNC(=O)C1CCOc2ccccc21 (stereo unspecified) | -4.11 | -1.11 | 0 |  |  | 
33 | O=C(CCl)N1CCN(Cc2cc(O)cc(Cl)c2)CC1 | 75 | 89.5 | 98.9 | 1570 |  | 92.7
34 | CCOC(=O)c1c(C)n(S(C)(=O)=O)c2ccc(N(C(=O)c3ccco3)S(C)(=O)=O)cc12 | 67.5 | 98.6 |  | 147 |  | 
35 | CN1CCN(C(=O)CNc2c(S(N)(=O)=O)ccc3ccccc23)CC1 | -0.961 | 0.321 | 0 |  |  | 
36 | CNC(=O)c1ccc(CS(=O)(=O)NCC(F)(F)c2ccc(F)cc2F)cc1 | 6.87 | 9.79 | 0 |  |  | 
37 | CC(=O)/C(C#N)=C(\O)Nc1ccc(C(F)(F)F)cc1 | -2.89 | -3 | 22.2 |  |  | 
38 | COC(=O)c1ccc(-c2cc(Cl)cc(CC(=O)Nc3cnccc3C)c2)c(OC)c1 |  |  |  | 12000 | 12700 | 
39 | CC(NC(=O)CCl)c1cc(F)cc(Cl)c1 (stereo unspecified) | 40.6 | 74.5 | 100 | 21000 |  | 
40 | COc1cc(Cl)cc(CC(=O)Nc2cnccc2C)c1 | 24.6 | 48.3 |  | 43600 |  | 
41 | Cc1cc(C)c(C#N)c(Sc2ncnc3c2nnn3Cc2ccccc2)n1 | 79 | 97.7 |  | 255 |  | 
42 | O=C(Nc1nncn1C1CC1)C1CCS(=O)(=O)c2ccccc21 (stereo unspecified) | 37.6 | 74.6 |  | 26800 |  | 
43 | Cn1cc(NC(=O)Nc2ccccn2)c2ccccc2c1=O | -2.17 | -0.727 | 0 |  |  | 
44 | C=CC(=O)N(c1ccc(C(C)(C)C)cc1)C(C(=O)NCCc1cccc(F)c1)c1cncc(O)c1 (stereo unspecified) | 16.1 | 23.5 |  | 26200 |  | 
45 | Cc1cc(S(=O)(=O)c2c([N+](=O)[O-])cc(C(F)(F)F)cc2[N+](=O)[O-])c(Cl)cc1Cl |  | 9.61 | 34.8 |  |  | 
46 | N#Cc1ccc(CN2C(=O)C(=O)c3cccc(Br)c32)c(F)c1 | -1.68 | -0.391 | 72.1 | 14300 |  | 
47 | COC(=O)c1c(C)nn(C(=O)c2cccs2)c1-c1snnc1C | 35 | 77 |  | 522 |  | 
48 | C=CC(=O)N(C(C)COc1cccc(F)c1)C(C(=O)NC(C)(C)C)c1cccnc1 (stereo unspecified) | -1.52 | -5.54 | 0 |  |  | 

Row | Compound | inhibition ([1]; 20.0 µM) [%] | inhibition ([1]; 50.0 µM) [%] | inhibition ([2]; 50.0 µM) [%] | IC50 [2] [nM] | IC50 [1] [nM] | inhibition ([2]; 20.0 µM) [%]
49 | O=S(=O)(Nc1ccccc1SCc1cccc(Cl)c1F)c1cc(Cl)sc1Cl | 90.3 | 81.3 |  | 1920 |  | 
50 | C=CC(=O)NCC(=O)N(Cc1ccccc1)C[C@H](O)c1ccccc1 (stereo in doubt) | -0.281 | 0.986 | 0 |  |  | 
51 | C=CC(=O)N(C1CC(C)OC1=O)C(C(=O)NC(C)(C)C)c1cccnc1 (stereo unspecified) | -2.18 | 1.34 | 0 |  |  | 
52 | Nc1ncc(S(=O)(=O)c2ccc(Cl)cc2)c(N)n1 |  | -22.1 | 0 |  |  | 
53 | C=CC(=O)N1CCN(Cc2ccc(F)cc2)CC1 | 7.92 | 11.4 | 0 |  |  | 
54 | Cc1ccc(S(=O)(=O)N2CCC(NC(=O)N(C)Cc3cc(C)on3)CC2)cc1 | -1.1 | 2.6 | 0 |  |  | 
55 | CCOc1ccccc1OC1CCN(C(=O)c2c(C)c(=O)[nH]c3ccccc23)C1 (stereo unspecified) | 0.342 | 4.57 | 0 |  |  | 
56 | O=C(Nc1cccc(C(F)(F)F)c1)Nc1ccccc1Sc1ncc([N+](=O)[O-])s1 | 55.9 | 76.3 |  | 219 |  | 
57 | COc1ccc(Cl)cc1N1CCN(Cc2cc(=O)[nH]c3ccccc23)C1=O | -1.82 | 4.69 | 0 |  |  | 
58 | COC(=O)[C@H](CO)NC(=O)[C@H](Cc1ccccc1)NC(=O)OCc1ccccc1 (stereo in doubt) | 1.06 | 2.61 | 0 |  |  | 
59 | Cc1ccc2nc(-c3ccc(N)cc3)sc2c1S(=O)(=O)O |  | 21.2 | 0 |  |  | 
60 | CSC1=C(C#N)C2(CCCCC2)C(C#N)=C(NC(=O)CCl)N1 |  |  | 97.5 | 1520 | 1140 | 
61 | O=S(=O)(Cc1ccccc1F)c1oc(-c2ccc(F)cc2)nc1S(=O)(=O)c1ccccc1 | 49 | 95.9 |  | 99.2 |  | 
62 | COc1cc(OC)cc(Oc2ccc(CNC(=O)Cn3nnc4ccccc43)cc2)c1 | 4.58 | 17.3 | 0 |  |  | 
63 | Cc1ccncc1NC(=O)C[C@H](c1ccccc1)N1CCC(O)CC1 (stereo in doubt) | 6.5 | 34.5 |  | 67500 |  | 
64 | O=C(NCc1ccc2c(c1)OCO2)c1nc(S(=O)(=O)Cc2ccccc2)ncc1Cl | 98.5 | 99.8 |  | 509 |  | 
65 | O=C1Nc2cc(N3CCCC3)ccc2C1=O | 7.46 | 37.3 | 0 |  |  | 
66 | CC(C)Cn1cc(NC(=O)NC2=NN(c3ccccc3)CC2)c2ccccc2c1=O | 1.37 | 5.45 | -5.97 |  |  | 
67 | CCCCN(CCCNC(=O)Nc1cn(CC(C)C)c(=O)c2ccccc12)c1ccccc1 | -4.26 | -3.25 |  | 82700 |  | 
68 | CS(=O)(=O)c1ccc(N2CCNCC2)cc1 | -2.52 | 5.05 |  | 83800 |  | 
69 | N#Cc1cnn(C(=O)c2cccs2)c1C1CC1 | 33.2 | 69 |  | 363 |  | 
70 | OC[C@@]1(F)CCN(c2nc(-c3cccnc3)nc3sc4c(c23)CCC4)C1 (stereo in doubt) | 1.46 | 6.05 | 0 |  |  | 
71 | Cc1cn2c(-c3cccnc3)c(-c3ccc(F)cc3)nc2s1 | -2.02 | 1.34 | 31.5 |  |  | 

Reference: the COVID Moonshot data (paper PMC11187573), “Identification of SARS-CoV-2 Mpro inhibitors through deep reinforcement learning for de novo drug design and computational chemistry approaches” (RSC Medicinal Chemistry, 2024)
